For 15 compounds, TGI and GI50 results are on record in PubChem BioAssay (NCI).

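Method: 48-hour compound exposure of cells in 96-well plates, five concentrations, linear interpolation of endpoints. The concentration for 50% growth inhibition is given as GI50. TGI: total growth inhibition.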 Where only a bound is given, the exact number is not on record here.

Holding throughout (assay): growth of human tumour cells (NCI), 48 h
The subject of experiment [1] is SN12C renal.
For experiment [2], the system named is NCI-H522 lung.
Experiment [3] deals with COLO 205 colon.
The test system of experiment [4] is MALME-3M melanoma.
The test system of experiment [5] is NCI-H460 lung.
Experiment [6] concerns HCT-15 colon.
The subject of experiment [7] is MDA-N.
In experiment [8] the test system is SW-620 colon.
Experiment [9] has as its system U251 CNS.
Experiment [10] relates to BT-549 breast.

On to `COc1cccc(-c2cc(=O)c3cc(N4CCCC4)ccc3[nH]2)c1`, for which the TGI in experiment [1] was > 10 µM; in [2], < 0.001 µM; in experiment [3], < 0.001 µM; in experiment [4], 9.53 µM; in experiment [5], 1.42 µM; in [6], 0.00647 µM. The results for the TGI in experiment [7] and in experiment [8] were < 0.001 µM and > 10 µM, respectively.
On to `CCOC(=O)C(C(=O)OCC)C(NC(=O)Nc1cc(C(F)(F)F)ccc1OC)(C(F)(F)F)C(F)(F)F`, for which the TGI in [1] is 74.2 µM; in experiment [2], 55.9 µM; in experiment [3] it was 32.3 µM; in experiment [4], 51.2 µM; in experiment [5], > 100 µM; in [6], > 100 µM. In addition, the figures for the TGI in experiment [7], in [8] and in [9] were > 100 µM, > 100 µM and 59.1 µM, respectively.
Consider `C/C(CC(O)(C(F)(F)F)C(F)(F)F)=N/Nc1ccc([N+](=O)[O-])cc1[N+](=O)[O-]`, for which the TGI in experiment [1] was > 10 µM; in [2], > 10 µM; in experiment [3], 3.85 µM; in [4], > 10 µM; in [5], > 10 µM; in experiment [6], > 10 µM. The TGI in experiment [7], in experiment [8] and in experiment [9] was > 10 µM throughout.
For `Cn1c2c(c3c(=O)[nH]ncc31)CCCc1ccccc1-2`, the TGI was 66.3 µM in experiment [1]; 38.3 µM in experiment [2]; 34.5 µM in experiment [3]; 60.7 µM in experiment [4]; 67.7 µM in [5]; > 100 µM in experiment [6]. Further, the TGI was > 100 µM in [8], 92.1 µM in experiment [9] and > 100 µM in experiment [10].
In the case of `COc1cc(OC)cc(Oc2nc3c(N)cc(C(F)(F)F)cc3nc2-c2ccccc2)c1`, the TGI in experiment [3] was 64.3 µM; in experiment [5], > 100 µM; in experiment [6], 55.9 µM; in [8], > 100 µM; in experiment [9] it was > 100 µM; in experiment [10], > 100 µM.
Take `CCC12C=CCN3CCC4(C(=C(C(=O)OC)C1)Nc1ccccc14)[C@H]32` (stereo not given in full): the TGI in experiment [2] is 49.4 µM; in experiment [3] it was 32.3 µM; in experiment [4] it was > 100 µM; in experiment [5], 41.9 µM; in [6] it was > 100 µM; in experiment [8], 86 µM.
As to `CCN1CCC(O)(/C=C/c2ccc(Cl)cc2)C(C(=O)/C=C/c2ccc(Cl)cc2)C1` (stereo not given), the TGI is 81.5 µM in experiment [2]; > 100 µM in [3]; > 100 µM in [4]; > 100 µM in [5]; 46.4 µM in [6]; 56.8 µM in [8]. In experiment [9], this compound gave a TGI of 44.9 µM.
`CCCC(=O)OC1=C(c2ccccc2)Sc2ccccc2-n2cccc21`: the TGI in experiment [1], in experiment [3], in [4], in experiment [6], in experiment [7] and in experiment [8] was > 10 µM each time.
`C#CC1(O)CC(c2ccccc2)N(C)C(c2ccccc2)C1` (stereo not given): the TGI in experiment [1], in experiment [2], in experiment [3], in [4], in [5] and in experiment [6] was > 100 µM each time. The TGI in [8] and in [9] was > 100 µM throughout.
Take `CC(=O)Nc1nc(C)c(-c2cc3c(c(S(C)(=O)=O)c2)C(=O)N([C@@H](C)C2CC2)C3)s1`: the GI50 in experiment [1] was 28.5 µM; in [2], 25.4 µM; in [3], 34.9 µM; in [4], 23.6 µM; in [5], 37.1 µM; in experiment [6] it was 28.2 µM. For the same compound, the GI50 was 54.5 µM in [8], 29.5 µM in experiment [9] and 29.1 µM in experiment [10]. Also, the TGI in experiment [1], in experiment [2], in experiment [3], in [4], in experiment [5] and in [6] was > 100 µM throughout. Moreover, the TGI in [8], in experiment [9] and in [10] was > 100 µM each time.
With `NC(=O)N/N=C/c1ccccc1O`, the TGI in experiment [3], in experiment [5], in [6], in experiment [8], in [9] and in [10] was > 100 µM in each case.
`COc1cc2c(cc1OC)C(=O)N1CCCC1C(=O)S2` (stereo not given): the TGI in [1], in [2], in experiment [3], in [4], in experiment [5] and in experiment [6] was > 100 µM each time. Further, the TGI in experiment [8] and in experiment [9] was > 100 µM in each case.
`N=c1oc2ccc(Cl)cc2cc1C(=O)NC1CCCCC1`: the TGI in [1], in [3], in [5], in experiment [6], in [7] and in experiment [8] was > 100 µM in each case. In addition, the TGI in experiment [9] and in experiment [10] was > 100 µM in each case.
As for `NC(=O)N=Nc1c2ccccc2n2[nH]ccc12`, the TGI in [1], in experiment [2], in experiment [3], in [4], in [5] and in [6] was > 100 µM throughout. In addition, the TGI in experiment [7], in [8] and in experiment [9] was > 100 µM each time.
For `COc1ccc(-c2c(C#N)cnc(N)c2-c2nc3cc(C)c(C)cc3[nH]2)cc1`, the GI50 in [1] was 25.4 µM; in [2], 4.74 µM; in experiment [3], 7.78 µM; in [4], 6 µM; in [5], 18.1 µM; in [6], 5.81 µM. Further, the GI50 in experiment [8] is 6.76 µM; in experiment [9] it was 3.65 µM; in experiment [10] it was 30.6 µM. Further, the TGI in experiment [1] was > 100 µM; in experiment [2], 54.7 µM; in [3], 63.7 µM; in experiment [4] it was 48.3 µM; in [5], > 100 µM; in experiment [6], > 100 µM. Besides, the TGI in experiment [8] is > 100 µM; in experiment [9], 12.7 µM; in experiment [10], > 100 µM.
